Reference: patent publication US20240252581A1, “COMPOSITIONS AND METHODS FOR TREATING RESPIRATORY DISTRESS” (S.I.S. SHULOV INNOVATIVE SCIENCE LTD., priority 2021, published 2024)
Square brackets hold non-standard residues; d marks the D form. Peptide text beside a SMILES is read from it. * marks the point of attachment. pGlu = O=C1CC[C@@H](C(=O)O)N1; Octanoyl = CCCCCCCC(=O)*

Columns and labels:
[1] = tested on: ACE2 mRNA; test: Relative ACE2 mRNA expression in lung tissue (real-time quantitative PCR); type: in vivo, mouse; conditions: in relation to rplO gene
Method: In order to test the efficacy of ZEP3 sodium on lung inflammation, the lipopolysaccharide (LPS)-induced acute lung injury model was used. In particular, LPS was administered intratracheally at doses of 10 or 40 mg/kg body weight (BW) corresponding to 0.2 or 0.8 mg/mouse, respectively.
Relative ACE2 mRNA expression in lung tissue was determined as follows: mRNA was extracted from lung tissues, real-time quantitative PCR was employed, and expression of ACE2 gene in relation to rplO gene was measured.

[2] = determined daily during the study

Compound: CCCCCCCC(=O)NCCCC[C@H](NC(=O)[C@H](Cc1c[nH]c2ccccc12)NC(=O)[C@H](CC(N)=O)NC(=O)[C@@H]1CCC(=O)N1)C(=O)O [ZEP3Na, pGlu-Asn-Trp-Lys(Octanoyl)-ONa] ([pGlu]NWK(Octanoyl)-OH)
- Relative ACE2 mRNA expression (Mean ± SEM) ([1]; LPS 0.2 mg + ZEP3 Na 0.1 mg): 0.672 ± 0.145
- Relative ACE2 mRNA expression (Mean ± SEM) ([1]; LPS 0.2 mg + ZEP3 Na 0.4 mg): 1.239 ± 0.132
- Relative ACE2 mRNA expression (Mean ± SEM) ([1]; LPS 0.8 mg + ZEP3 Na 0.1 mg): 0.223 ± 0.031
- Relative ACE2 mRNA expression (Mean ± SEM) ([1]; LPS 0.8 mg + ZEP3 Na 0.1 mg, listed as ZEP3 sodium): 0.22
- Relative ACE2 mRNA expression (Mean ± SEM) ([1]; LPS 0.8 mg + ZEP3 Na 0.4 mg): 0.805 ± 0.251
- Relative ACE2 mRNA expression (Mean ± SEM) ([1]; ZEP3 Na 0.1 mg, no LPS): 1.750 ± 0.320
- Relative ACE2 mRNA expression (Mean ± SEM) ([1]; ZEP3 Na 0.4 mg, no LPS): 0.303 ± 0.025
- body weight [2]: No major changes
